Measured values taken from ChEMBL document CHEMBL3351753, “Inhibitory effects of ginseng sapogenins on the proliferation of triple negative breast cancer MDA-MB-231 cells” (Bioorg Med Chem Lett, 2014).
pIC50: −log10 of the molar value. The source made the active and inactive calls. The rule behind the calls is not given here.

Experiments:
[1] = system: MDA-MB-231; test: Antiproliferative activity against human MDA-MB-231 cells after 4 hrs by MTT assay; format: functional, cell-based; conditions: MDA-MB-231, 4 h
[2] = system: LLC-PK1; test: Cytotoxicity against pig LLC-PK1 cells after 4 hrs by MTT assay; format: cell-based; conditions: Sus scrofa, LLC-PK1, 4 h
[3] = system: MDA-MB-231; test: Induction of apoptosis in human MDA-MB-231 cells assessed as decrease in expression of full-length BID at 2.5 to 5.8 uM after 24 hrs by SDS-polyactylamide gel electrophoresis; format: functional, cell-based
[4] = system: MDA-MB-231; test: Induction of apoptosis in human MDA-MB-231 cells assessed as increase in expression of cleaved PARP at 2.5 to 5.8 uM after 24 hrs by SDS-polyactylamide gel electrophoresis; format: functional, cell-based
[5] = system: MDA-MB-231; test: Induction of apoptosis in human MDA-MB-231 cells assessed as increase in expression of cleaved caspase 3 at 2.5 to 5.8 uM after 24 hrs by SDS-polyactylamide gel electrophoresis; format: functional, cell-based
[6] = system: MDA-MB-231; test: Induction of apoptosis in human MDA-MB-231 cells assessed as increase in cells at early apoptotic phase at 2.5 uM after 24 hrs by annexin-V-FITC/propidium iodide staining- based flow cytometric analysis (reference value: 4.76%); format: functional
[7] = system: MDA-MB-231; test: Induction of apoptosis in human MDA-MB-231 cells assessed as increase in expression of cleaved caspase 8 at 2.5 to 5.8 uM after 24 hrs by SDS-polyactylamide gel electrophoresis; format: functional, cell-based

Work on `COc1cccc2c1C(=O)c1c(O)c3c(c(O)c1C2=O)C[C@@](O)(C(=O)CO)C[C@@H]3O[C@H]1C[C@H](N)[C@H](O)[C@H](C)O1` [DOXORUBICIN] yielded a pIC50 [1] of 5.54.

For `CC(C)=CCC[C@](C)(O)[C@H]1CC[C@]2(C)[C@@H]1[C@H](O)C[C@@H]1[C@@]3(C)CC[C@H](O)C(C)(C)[C@@H]3CC[C@]12C`, the pIC50 [2] was 4.44, the Activity [3] was “Active” and the pIC50 [1] was 5.23. For the same compound, the Activity [4] was “Active”, the Activity [5] was “Active” and the Activity [6] was 8.18%. The Activity [7] was “Active”.

Compound `CC(C)CCC[C@](C)(O)[C@H]1CC[C@]2(C)[C@@H]1[C@H](O)C[C@@H]1[C@@]3(C)CC[C@H](O)C(C)(C)[C@@H]3[C@@H](O)C[C@]12C` has a pIC50 [1] of 4.59.

For `COc1cc(/C=C/C(=O)CC(=O)/C=C/c2ccc(O)c(OC)c2)ccc1O` [CURCUMIN], the pIC50 [1] was 4.46.

Compound `O=C(O[C@@H]1Cc2c(O)cc(O)cc2O[C@@H]1c1cc(O)c(O)c(O)c1)c1cc(O)c(O)c(O)c1` [EPIGALOCATECHIN GALLATE] has a pIC50 [1] of 4.12.

`CC(C)CCC[C@](C)(O)[C@H]1CC[C@]2(C)[C@@H]1[C@H](O)C[C@@H]1[C@@]3(C)CC[C@H](O)C(C)(C)[C@@H]3CC[C@]12C` showed a pIC50 [1] of 4.57.

`CC(C)=CCC[C@](C)(O)[C@H]1CC[C@]2(C)[C@@H]1[C@H](O)C[C@@H]1[C@@]3(C)CC[C@H](O)C(C)(C)[C@@H]3[C@@H](O)C[C@]12C` was tested, and the pIC50 [1] was 4.91.

Work on `CC(=O)O[C@H]1C(=O)[C@@]2(C)[C@H]([C@H](OC(=O)c3ccccc3)[C@]3(O)C[C@H](OC(=O)[C@H](O)[C@@H](NC(=O)c4ccccc4)c4ccccc4)C(C)=C1C3(C)C)[C@]1(OC(C)=O)CO[C@@H]1C[C@@H]2O` [PACLITAXEL] yielded a pIC50 [1] of 5.21.
